Laboratory results from US11446287B2, “Compounds and methods for EP300 or CBP modulation and indications therefor” (Opna Immuno-Oncology SA, priority 2019, dated 2022).

target: T1, Recombinant human EP300 containing the bromodomain (EP300-BD (1040-1161)) (Homo sapiens, UniProt Q09472); experiment: EP300 Alphascreen binding assay
T1 construct: Recombinant human EP300 bromodomain (EP300-BD (1040-1161)); made in house; host or cells: E. coli BL21-CodonPlus (DE3), modified pET vector
T1 sequence (Q09472 1040-1161): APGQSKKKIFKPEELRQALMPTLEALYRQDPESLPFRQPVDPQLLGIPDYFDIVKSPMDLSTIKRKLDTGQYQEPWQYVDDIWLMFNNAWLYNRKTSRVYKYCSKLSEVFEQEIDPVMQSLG
How it was run: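 Displacement of a biotinylated acetyl-K56 histone H3 peptide from the N-His bromodomain construct (1040-1161) measured by AlphaScreen proximity, beads at 7.5 μg/ml final, read 60 min after addition. Protein, peptide and compound first incubated 1 h at room temperature, pH 7.5 HEPES buffer; IC50 by four-parameter logistic fit.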

| Compound | IC50 [µM] |
| --- | --- |
| Cc1noc(C)c1-c1cnc2c(c1)c(-c1cnn(C(C)(C)C(=O)O)c1)cn2C(c1ccccn1)C1CCCC1 (stereo not shown) [P-0035, 2-(4-(1-(cyclopentyl(pyridin-2-yl)methyl)-5-(3,5-dimethylisoxazol-4-yl)-1H-pyrrolo[2,3-b]pyridin-3-yl)-1H-pyrazol-1-yl)-2-methylpropanoic acid] | 0.0001 to 1 |
| Cc1noc(C)c1-c1cnc2c(c1)c(-c1cnn(CC(=O)O)c1)cn2C(c1ccccn1)C1CCCC1 (stereo not shown) [P-0036, 2-(4-(1-(cyclopentyl(pyridin-2-yl)methyl)-5-(3,5-dimethylisoxazol-4-yl)-1H-pyrrolo[2,3-b]pyridin-3-yl)-1H-pyrazol-1-yl)acetic acid] | 0.0001 to 1 |
| Cc1noc(C)c1-c1cnc2c(c1)c(-c1cnn(CC(C)(C)O)c1)cn2C(c1ccccn1)C1CCCC1 (stereo not shown) [P-0037, 1-(4-(1-(cyclopentyl(pyridin-2-yl)methyl)-5-(3,5-dimethylisoxazol-4-yl)-1H-pyrrolo[2,3-b]pyridin-3-yl)-1H-pyrazol-1-yl)-2-methylpropan-2-ol] | 1 to 8 |
| Cc1noc(C)c1-c1cnc2c(c1)c(-c1ccc(C(=O)O)c(Cl)c1)cn2C(c1ccccn1)C1CCCC1 (stereo not shown) [P-0038, 2-chloro-4-(1-(cyclopentyl(pyridin-2-yl)methyl)-5-(3,5-dimethylisoxazol-4-yl)-1H-pyrrolo[2,3-b]pyridin-3-yl)benzoic acid] | 0.0001 to 1 |
| COC(=O)c1cc(-c2cn(C(c3ccccn3)C3CCCC3)c3ncc(-c4c(C)noc4C)cc23)ccn1 (stereo not shown) [P-0040, methyl 4-(1-(cyclopentyl(pyridin-2-yl)methyl)-5-(3,5-dimethylisoxazol-4-yl)-1H-pyrrolo[2,3-b]pyridin-3-yl)picolinate] | 0.0001 to 1 |
| Cc1noc(C)c1-c1cnc2c(c1)c(-c1ccnc(C(=O)O)c1)cn2C(C1CC1)C1CC1 [P-0041, 4-(1-(dicyclopropylmethyl)-5-(3,5-dimethylisoxazol-4-yl)-1H-pyrrolo[2,3-b]pyridin-3-yl)picolinic acid] | 0.0001 to 1 |
| Cc1noc(C)c1-c1cnc2c(c1)c(-c1ccnc(C(=O)O)c1)cn2Cc1ccccc1 [P-0042, 4-(1-benzyl-5-(3,5-dimethylisoxazol-4-yl)-1H-pyrrolo[2,3-b]pyridin-3-yl)picolinic acid] | 0.0001 to 1 |
| Cc1noc(C)c1-c1cnc2c(c1)c(-c1ccnc(C(=O)O)c1)cn2C(c1ccccn1)C1CCC1 (stereo not shown) [P-0043, 4-(1-(cyclobutyl(pyridin-2-yl)methyl)-5-(3,5-dimethylisoxazol-4-yl)-1H-pyrrolo[2,3-b]pyridin-3-yl)picolinic acid] | 0.0001 to 1 |
| Cc1noc(C)c1-c1cnc2c(c1)c(-c1ccnc(C(=O)O)c1)cn2Cc1ccccn1 [P-0044, 4-(5-(3,5-dimethylisoxazol-4-yl)-1-(pyridin-2-ylmethyl)-1H-pyrrolo[2,3-b]pyridin-3-yl)picolinic acid] | 0.0001 to 1 |
| Cc1noc(C)c1-c1cnc2c(c1)c(-c1ccnc(C(=O)O)c1)cn2CC1CC1 [P-0045, 4-(1-(cyclopropylmethyl)-5-(3,5-dimethylisoxazol-4-yl)-1H-pyrrolo[2,3-b]pyridin-3-yl)picolinic acid] | 0.0001 to 1 |
| COC(=O)c1cc(-c2cn(C(c3ccccn3)C3CCC3)c3ncc(-c4c(C)noc4C)cc23)ccn1 (stereo not shown) [P-0046, methyl 4-(1-(cyclobutyl(pyridin-2-yl)methyl)-5-(3,5-dimethylisoxazol-4-yl)-1H-pyrrolo[2,3-b]pyridin-3-yl)picolinate] | 0.0001 to 1 |
| COc1cc(C(=O)O)ccc1-c1cn([C@@H](C)c2ccccn2)c2ncc(-c3c(C)noc3C)cc12 [P-0047, (S)-4-(5-(3,5-dimethylisoxazol-4-yl)-1-(1-(pyridin-2-yl)ethyl)-1H-pyrrolo[2,3-b]pyridin-3-yl)-3-methoxybenzoic acid] | 0.0001 to 1 |
| Cc1noc(C)c1-c1cnc2c(c1)c(-c1cccc(C(=O)O)c1)cn2Cc1ccccc1 [P-0048, 3-(1-benzyl-5-(3,5-dimethylisoxazol-4-yl)-1H-pyrrolo[2,3-b]pyridin-3-yl)benzoic acid] | 0.0001 to 1 |
